Experimental data as given in patent publication US20220257595A1, “MACITENTAN FOR USE IN TREATING PORTOPULMONARY HYPERTENSION” (ACTELION PHARMACEUTICALS LTD, priority 2019, published 2022).
“Also recorded” adds a separate entry of the source.

Experiment: PORTICO PK substudy: steady-state plasma macitentan and ACT-132577
Type: in vivo, human
Protocol: It was planned to enroll at least 20 patients who were on steady-state treatment with macitentan (i.e., at least 4 weeks) into the PK substudy. The substudy was conducted in consenting patients from all centers across all regions who agreed to participate. The substudy consisted of the following periods:
PK assessments period: PK assessments were to be performed after OL study treatment had been taken for at least 4 weeks. The substudy comprised two visits (Day 1: Enrollment and Day 2: Conclusion). See, FIG. 2. Subject eligibility was first checked on Day 1 of the PK substudy prior to the start of assessments.
PK substudy: On Day 1 of the PK substudy, the study treatment was required to be taken directly after the pre-dose blood sample. On Day 2 of the PK substudy, study treatment was required to be taken after the collection of the last PK blood sample (24 hours post Day 1 dose).
F3. Pharmacokinetic Endpoints for Macitentan and its Active Metabolite ACT-132577 • The area under the plasma concentration-time curve during one dosing interval (AUCt). • Maximum plasma concentration (Cmax) during a dosing interval. • The time to reach maximum plasma concentration (tmax) during a dosing interval.
(i) Timing for sampling: For the PK assessment, blood samples were drawn at the following time points: • PK substudy Day 1: Immediately before study treatment administration in the morning (pre-dose) and 1 h, 3 h, 5 h, 6 h, 7 h, 8 h, 9 h, 10 h, 12 h, and 14 h post-dose. • PK substudy Day 2: 24 h post-dose.
(iii) Bioanalysis: A validated liquid chromatography coupled to mass spectrometry method was used for determining the concentrations of macitentan and its metabolite ACT-132577 in plasma. The limit of quantification (LOQ) for both analytes was 1 ng/mL.
The measured individual plasma concentrations of macitentan and its metabolite ACT-132577 were used to directly obtain Cmax and tmax. AUCT was calculated according to the linear trapezoidal rule using the measured concentration-time values above the LOQ during one dosing interval. The PK variables were calculated on the basis of the real (actual) blood sampling time points. For mean value calculations, all values below the LOQ (below the limit of quantification (BLQ) values) were set to zero if ≤50% of the values at a given time point were BLQ. If >50% of the values at a given time point were BLQ, no mean value was calculated. Mean concentration-time profiles were generated using these criteria. The individual and mean plasma concentration-time profiles were plotted on a linear scale. The derived PK variables for macitentan and ACT-132577 (AUCT, Cmax, tmax) are listed by patient. Plasma concentrations per time point were summarized using arithmetic mean, minimum, median, maximum, standard deviation (SD), standard error (SE), and two-sided 95% confidence interval of the mean. […] (*For tmax the geometric mean and its 95% confidence interval were not calculated).

In the case of CCCNS(=O)(=O)Nc1ncnc(OCCOc2ncc(Br)cn2)c1-c1ccc(Br)cc1 [macitentan, N-[5-(4-Bromophenyl)-6-[2-[(5-bromo-2-pyrimidinyl)oxy]ethoxy]-4-pyrimidinyl]-N′-propylsulfamide], the “Plasma exposure in PoPH patients compared with other forms of PAH / other macitentan studies” value is reported as “consistent between PoPH patients and patients with other forms of PAH; also recorded: comparable between patients with PoPH and other forms of PAH; also recorded: consistent with those in other macitentan studies”, the “Trough plasma concentration, mean±SD” value (OL macitentan 10 mg o.d. at least 4 weeks, PoPH patients, n=8) is reported as 213.1 ± 86.4 ng/mL and the Cmax (human, plasma, oral, macitentan 10 mg o.d., PoPH patients, PKS 10 patients, read-out: Cmax, geometric mean (95% confidence interval)) is reported as 369 ng/mL. The Tmax (human, plasma, oral, macitentan 10 mg o.d., PoPH patients, PKS 10 patients, read-out: tmax, median (range)) was 6.5 h and the AUC(0-t) (human, plasma, oral, one dosing interval, macitentan 10 mg o.d., PoPH patients, read-out: AUCT, geometric mean (95% confidence interval)) was 6660 ng·h/mL.
